Like-named read-outs stand apart in the source and are kept apart here.
Target: T1, mAChR M1 (UniProt P11229)
T1 sequence (P11229 1-460): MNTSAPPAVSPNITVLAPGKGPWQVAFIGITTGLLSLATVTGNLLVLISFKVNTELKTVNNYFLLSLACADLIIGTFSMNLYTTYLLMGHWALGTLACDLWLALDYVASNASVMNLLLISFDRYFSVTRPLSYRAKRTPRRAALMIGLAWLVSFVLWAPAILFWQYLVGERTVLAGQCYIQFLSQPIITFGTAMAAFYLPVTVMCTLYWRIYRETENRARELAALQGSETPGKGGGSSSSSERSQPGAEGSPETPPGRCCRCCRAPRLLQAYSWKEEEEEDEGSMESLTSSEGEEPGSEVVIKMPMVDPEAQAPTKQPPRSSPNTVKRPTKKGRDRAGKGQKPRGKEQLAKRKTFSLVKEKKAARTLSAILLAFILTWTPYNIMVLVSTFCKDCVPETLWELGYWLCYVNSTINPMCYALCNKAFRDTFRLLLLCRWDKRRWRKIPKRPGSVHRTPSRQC
Assay: mAChR M1 cell-based functional assay (calcium mobilization, potentiation of EC20 acetylcholine response)
Conditions: for EC50: CHO-K1 cells expressing mAChR M1, increase in EC20 acetylcholine response, >10 μM estimated where no plateau in the curve
Method: Chinese hamster ovary (CHO-K1) cells stably expressing rat (r)M1 were purchased from the American Type Culture Collection and cultured according to their indicated protocol. […] To make stable rM2, hM2, rM3, hM4, and rM4 cell lines for use in calcium mobilization assays, these cells also were stably transfected with a chimeric G-protein (Gqi5) (provided by B. R. Conklin, University of California, San Francisco) using Lipofectamine 2000. rM1, hM1, rM3, hM3, rM5, and hM5 cells were grown in Ham's F-12 medium containing 10% heat-inactivated fetal bovine serum (FBS), 20 mM HEPES, and 50 μg/mL G418 sulfate. rM2-Gqi5, hM2-Gqi5, and hM4-Gqi5 cells were grown in the same medium also containing 500 μg/mL Hygromycin B. Stable rM4-Gqi5 cells were grown in DMEM containing 10% heat-inactivated FBS, 20 mM HEPES, 400 μg/mL G418 sulfate, and 500 μg/mL Hygromycin B.
For high throughput measurement of agonist-evoked increases in intracellular calcium, CHO-K1 cells stably expressing muscarinic receptors were plated in growth medium lacking G418 and hygromycin at 15,000 cells/20 μL/well in Greiner 384-well black-walled, tissue culture (TC)-treated, clear-bottom plates (VWR). Cells were incubated overnight at 37° C. and 5% CO2. […] Compound master plates were formatted in an 11 point CRC format (1:3 dilutions) in 100% DMSO with a starting concentration of 10 mM using the BRAVO liquid handler (Agilent). Test compound CRCs were then transferred to daughter plates ([…]) using the Echo acoustic plate reformatter (Labcyte, Sunnyvale, Calif.) and then diluted into assay buffer (40 μL) to a 2× stock using a Thermo Fisher Combi (Thermo Fisher Scientific, Waltham, Mass.).
Calcium flux was measured using the Functional Drug Screening System (FDSS) 6000 (Hamamatsu Corporation, Tokyo, Japan) as an increase in the fluorescent static ratio. Compounds were applied to cells (20 μL, 2×) using the automated system of the FDSS 6000 at 4 s into the 300 s protocol and the data were collected at 1 Hz. […] Agonist activity was analyzed as a concentration-dependent increase in calcium mobilization upon compound addition. Positive allosteric modulator activity was analyzed as a concentration-dependent increase in the EC20 acetylcholine response. Antagonist activity was analyzed as a concentration-dependent decrease in the EC80 acetylcholine response. Concentration-response curves were generated using a four-parameter logistical equation in XLfit curve fitting software (IDBS, Bridgewater, N.J.) for Excel (Microsoft, Redmond, Wash.) or Prism (GraphPad Software, Inc., San Diego, Calif.).
The calcium mobilization assay was also used to determine “efficacy”. In the context of the assays carried out for the data in Table II, “efficacy” (% ACh at 30 μM) is defined as the maximal response in the calcium flux as determined by the sigmoidal curve fit of the concentration response curve, or in the absence of an acceptable curve fit, the response recorded at 30 μM test compound, stated as a percentage of the response elicited by a concentration of Ach that induces approximately 80% of a maximal (i.e. saturating) ACh response.
Substituted benzylspiroindolin-2-one analogs were synthesized as described above. Activity (EC50 and Emax) was determined in the mAChR M1 cell-based functional assay as described above and the data are shown in Table III. The compound number corresponds to the compound numbers used in Tables I and II.

SMILES	Emax (% ACh maximum at 30 μM) [%]	EC50 [nM]	Emax [%]
CN1CCC2(C1)C(=O)N(Cc1ccc(-c3cnn(C)c3)cc1F)c1ccccc12 (racemic) [Compound B18, 1-(2-fluoro-4-(1-methyl-1H-pyrazol-4-yl)benzyl)-1′-methylspiro[indoline-3,3′-pyrrolidin]-2-one]	62	2900	–
Cn1cc(-c2ccc(CN3C(=O)C4(CCN(C5CCCCC5)C4)c4ccccc43)c(F)c2)cn1 (single isomer, unassigned) [Compound B2]	73	1500	–
CN1CCC2(C1)C(=O)N(Cc1ccc(-c3cnn(C)c3)cc1F)c1ccccc12 (single isomer, unassigned) [Compound B16, 1-(2-fluoro-4-(1-methyl-1H-pyrazol-4-yl)benzyl)-1′-methylspiro[indoline-3,3′-pyrrolidin]-2-one]	46	2700	–
CN1CCC2(C1)C(=O)N(Cc1ccc(-c3cnn(C)c3)cc1F)c1ccccc12 (single isomer, unassigned) [Compound B31, 1-(2-fluoro-4-(1-methyl-1H-pyrazol-4-yl)benzyl)-1′-methylspiro[indoline-3,3′-pyrrolidin]-2-one]	76	3800	–
Cn1cc(-c2ccc(CN3C(=O)C4(CCN(C5CCCOC5)C4)c4ccccc43)c(F)c2)cn1 (single isomer, unassigned) [Compound B34]	28	3900	–
Cn1cc(-c2ccc(CN3C(=O)C4(CCN(C5CCCOC5)C4)c4ccccc43)c(F)c2)cn1 (single isomer, unassigned) [Compound B35]	57	3900	–
Cn1cc(-c2ccc(CN3C(=O)C4(CCN(C(=O)c5ccccc5)C4)c4ccccc43)c(F)c2)cn1 (single isomer, unassigned) [Compound B45]	38	5300	–
Cn1cc(-c2ccc(CN3C(=O)C4(CCN(C(=O)c5ccccc5)C4)c4ccccc43)c(F)c2)cn1 (single isomer, unassigned) [Compound B47]	38	5800	–
Cn1cc(-c2ccc(CN3C(=O)C4(CCN(C5CCCCC5)C4)c4ccccc43)c(F)c2)cn1 (single isomer, unassigned) [Compound B58]	39	> 10000	–
Cn1cc(-c2ccc(CN3C(=O)C4(CCN(C5CCCOC5)C4)c4ccccc43)c(F)c2)cn1 (single isomer, unassigned) [Compound B67]	44	> 10000	–
Cn1cc(-c2ccc(CN3C(=O)C4(CCN(C5CCCOC5)C4)c4ccccc43)c(F)c2)cn1 (single isomer, unassigned) [Compound B68]	60	> 10000	–
Cn1cc(-c2ccc(CN3C(=O)C4(CCN(CC5CCCCC5)C4)c4ccccc43)c(F)c2)cn1 (single isomer, unassigned) [Compound B72]	36	> 10000	–
Cn1cc(-c2ccc(CN3C(=O)C4(CCN(CC5CCCCC5)C4)c4ccccc43)c(F)c2)cn1 (single isomer, unassigned) [Compound B73]	<20	> 10000	–
Cn1cc(-c2ccc(CN3C(=O)C4(CCN(C5CCCC5)C4)c4ccccc43)cc2)cn1 (centres unmarked) [Compound B1]	43	1300	–
Cn1cc(-c2ccc(CN3C(=O)C4(CCN(C5CCCC5)C4)c4ccccc43)c(F)c2)cn1 (centres unmarked) [Compound B3, 1′-cyclopentyl-1-(2-fluoro-4-(1-methyl-1H-pyrazol-4-yl)benzyl)spiro[indoline-3,3′-pyrrolidin]-2-one]	61	1600	–
Cn1cc(-c2cc(F)c(CN3C(=O)C4(CCN(C5CCCC5)C4)c4ccccc43)c(F)c2)cn1 (centres unmarked) [Compound B4]	72	1700	–
Cn1cc(-c2ccc(CN3C(=O)C4(CCN(C5CCCCC5)C4)c4ccccc43)c(F)c2)cn1 (centres unmarked) [Compound B5]	66	1800	–

SMILES	Emax (% ACh maximum at 30 μM) [%]	EC50 [nM]	Emax [%]
Cn1cc(-c2ccc(CN3C(=O)C4(CCN(c5ncccn5)C4)c4ccccc43)c(F)c2)cn1 (centres unmarked) [Compound B7, 1-(2-fluoro-4-(1-methyl-1H-pyrazol-4-yl)benzyl)-1′-(pyrimidin-2-yl)spiro[indoline-3,3′-pyrrolidin]-2-one]	63	1900	–
Cn1cc(-c2ccc(CN3C(=O)C4(CCN(C5CCCC5)C4)c4ccccc43)cc2F)cn1 (centres unmarked) [Compound B8]	36	2000	–
Cn1cc(-c2ccc(CN3C(=O)C4(CCN(C5CCCCC5F)CC4)c4ccccc43)c(F)c2)cn1 (centres unmarked) [Compound B9]	32	2300	–
Cn1cc(-c2ccc(CN3C(=O)C4(CCN(C5CCOCC5)C4)c4ccccc43)c(F)c2)cn1 (centres unmarked) [Compound B10]	61	2400	–
Cn1cc(-c2ccc(CN3C(=O)C4(CCN(CC5CC5)C4)c4ccccc43)c(F)c2)cn1 (centres unmarked) [Compound B11]	60	2400	–
Cn1cc(-c2ccc(CN3C(=O)C4(CCN(C5CCCC5)C4)c4ccccc43)c(F)c2F)cn1 (centres unmarked) [Compound B12]	52	2400	–
Cn1cc(-c2cc(F)c(CN3C(=O)C4(CCN(C5CCCC5)C4)c4ccccc43)cc2F)cn1 (centres unmarked) [Compound B13]	62	2400	–
Cn1cc(-c2ccc(CN3C(=O)C4(CCN(C5CCC5)C4)c4ccccc43)c(F)c2)cn1 (centres unmarked) [Compound B14]	58	2600	–
Cn1cc(-c2ccc(CN3C(=O)C4(CCN(C5CCSCC5)C4)c4ccccc43)c(F)c2)cn1 (centres unmarked) [Compound B15]	58	2700	–
CCn1cc(-c2ccc(CN3C(=O)C4(CCN(C5CCCC5)C4)c4ccccc43)c(F)c2)cn1 (centres unmarked) [Compound B17]	45	2800	–
Cn1cc(-c2ccc(CN3C(=O)C4(CCN(C5CCCOC5)C4)c4ccccc43)c(F)c2)cn1 (centres unmarked) [Compound B19]	62	2900	–
Cn1cc(-c2ccc(CN3C(=O)C4(CCN(C5CCCCC5F)C4)c4ccccc43)c(F)c2)cn1 (centres unmarked) [Compound B20]	67	3000	–
Cn1cc(-c2ccc(CN3C(=O)C4(CCN(C5CCCCCC5)C4)c4ccccc43)c(F)c2)cn1 (centres unmarked) [Compound B21]	51	3000	–
Cn1cc(-c2ccc(CN3C(=O)C4(OCCO4)c4ccccc43)c(F)c2)cn1 [Compound B22, 1′-(2-fluoro-4-(1-methyl-1H-pyrazol-4-yl)benzyl)spiro[[1,3]dioxolane-2,3′-indolin]-2′-one]	86	3200	–
Cn1cc(-c2ccc(CN3C(=O)C4(CCN(CCF)C4)c4ccccc43)c(F)c2)cn1 (centres unmarked) [Compound B23]	–	3200	63
CCN1CCC2(C1)C(=O)N(Cc1ccc(-c3cnn(C)c3)cc1F)c1ccccc12 (centres unmarked) [Compound B24]	65	3200	–
Cn1cc(-c2ccc(CN3C(=O)C4(CCN(C5CCOC5)C4)c4ccccc43)c(F)c2)cn1 (centres unmarked) [Compound B25]	54	3300	–

Source: patent US9073935B2, “Substituted benzylspiroindolin-2-one analogs as positive allosteric modulators of the muscarinic acetylcholine receptor M1” (VANDERBILT UNIVERSITY, priority 2011, dated 2015)
